Measurements: patent EP4678638A1, “NEW E3 UBIQUITIN LIGASE LIGAND, PROTEIN DEGRADATION AGENT AND USE THEREOF” (priority 2023, dated 2024)

Experiments:
ALK = biological target: T1, ALK (Homo sapiens, UniProt Q96SW2+Q9HC35+Q9UM73); test: Western blot degradation of ALK (H2228 Cell); assay type: cell-based; details: Table D5
T1 construct: evaluate the effects of the compounds of the present disclosure on the expression of target proteins in cells; endogenous in cells; host or cells: H2228
Summary of the method: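 Degradation is assessed by immunoblotting lysates of treated cells. Target bands are quantified by grayscale and normalised to an internal control, so degradation rate equals 100% minus % remaining.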

SR = test: CCK-8 proliferation, SR; assay type: cell-based, Human; details: Homo sapiens; Table B6, compounds designed based on the ALK inhibitors; SR cells; read-out: Inhibitory activity (IC50, nM) on tumor cell proliferation, SR
Summary of the method: (§1)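 CCK-8 viability readout; IC50 from growth-inhibition curve fitting. Cells plated, dosed 24h later with a 10-point series, top 10µM, 5-fold steps. Culture at 37°C, 5% CO2.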

MCF7 = test: CCK-8 proliferation, MCF7 (MCF-7); assay type: cell-based; details: Homo sapiens, MCF7; Table B6, compounds designed based on the ALK inhibitors; MCF-7 cells; read-out: Inhibitory activity (IC50, nM) on tumor cell proliferation, MCF-7
Summary of the method: as §1

H2228 = test: CCK-8 proliferation, NCI-H2228 (H2228); assay type: cell-based; details: Homo sapiens, NCI-H2228; Table B6, compounds designed based on the ALK inhibitors; H2228 cells; read-out: Inhibitory activity (IC50, nM) on tumor cell proliferation, H2228
Summary of the method: as §1

H1975 = test: CCK-8 proliferation, NCI-H1975 (H1975); assay type: cell-based, Human; details: Homo sapiens, NCI-H1975; Table B6, compounds designed based on the ALK inhibitors; H1975 cells; read-out: Inhibitory activity (IC50, nM) on tumor cell proliferation, H1975
Summary of the method: as §1

T1 sequence (Q9HC35+Q9UM73 fused): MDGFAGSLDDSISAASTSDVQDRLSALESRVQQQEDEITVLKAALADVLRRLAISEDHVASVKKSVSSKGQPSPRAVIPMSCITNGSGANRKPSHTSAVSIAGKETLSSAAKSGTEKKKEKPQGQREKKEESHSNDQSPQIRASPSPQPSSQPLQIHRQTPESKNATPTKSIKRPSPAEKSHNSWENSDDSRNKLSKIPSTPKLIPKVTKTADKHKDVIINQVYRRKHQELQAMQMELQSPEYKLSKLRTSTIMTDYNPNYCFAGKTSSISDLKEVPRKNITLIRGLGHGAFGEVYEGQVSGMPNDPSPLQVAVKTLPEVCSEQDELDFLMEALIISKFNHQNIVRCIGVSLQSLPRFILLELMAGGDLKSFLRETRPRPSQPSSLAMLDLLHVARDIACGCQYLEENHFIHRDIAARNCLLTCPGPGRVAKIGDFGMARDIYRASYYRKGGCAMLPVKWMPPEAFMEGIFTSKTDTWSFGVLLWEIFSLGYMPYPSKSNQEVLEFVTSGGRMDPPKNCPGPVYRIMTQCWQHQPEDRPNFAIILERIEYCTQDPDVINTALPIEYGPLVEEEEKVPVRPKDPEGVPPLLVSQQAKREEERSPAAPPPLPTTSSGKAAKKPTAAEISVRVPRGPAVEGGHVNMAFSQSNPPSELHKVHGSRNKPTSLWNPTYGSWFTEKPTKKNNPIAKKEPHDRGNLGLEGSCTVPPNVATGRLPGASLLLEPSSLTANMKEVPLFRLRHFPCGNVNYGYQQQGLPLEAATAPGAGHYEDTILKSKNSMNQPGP
T1 sequence (Q96SW2 whole entry): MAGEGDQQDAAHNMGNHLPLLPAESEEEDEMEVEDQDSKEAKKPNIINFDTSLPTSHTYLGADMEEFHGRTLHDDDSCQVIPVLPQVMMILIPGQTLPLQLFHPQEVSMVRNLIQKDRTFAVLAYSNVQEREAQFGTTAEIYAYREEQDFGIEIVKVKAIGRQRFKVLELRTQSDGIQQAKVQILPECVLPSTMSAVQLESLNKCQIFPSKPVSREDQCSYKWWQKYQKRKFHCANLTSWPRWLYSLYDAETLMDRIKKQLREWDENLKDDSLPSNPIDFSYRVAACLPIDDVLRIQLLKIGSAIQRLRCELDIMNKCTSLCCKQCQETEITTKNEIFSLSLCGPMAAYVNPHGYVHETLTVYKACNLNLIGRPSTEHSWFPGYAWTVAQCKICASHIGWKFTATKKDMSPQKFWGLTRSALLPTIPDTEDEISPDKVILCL
T1 sequence (Q16531 whole entry partner): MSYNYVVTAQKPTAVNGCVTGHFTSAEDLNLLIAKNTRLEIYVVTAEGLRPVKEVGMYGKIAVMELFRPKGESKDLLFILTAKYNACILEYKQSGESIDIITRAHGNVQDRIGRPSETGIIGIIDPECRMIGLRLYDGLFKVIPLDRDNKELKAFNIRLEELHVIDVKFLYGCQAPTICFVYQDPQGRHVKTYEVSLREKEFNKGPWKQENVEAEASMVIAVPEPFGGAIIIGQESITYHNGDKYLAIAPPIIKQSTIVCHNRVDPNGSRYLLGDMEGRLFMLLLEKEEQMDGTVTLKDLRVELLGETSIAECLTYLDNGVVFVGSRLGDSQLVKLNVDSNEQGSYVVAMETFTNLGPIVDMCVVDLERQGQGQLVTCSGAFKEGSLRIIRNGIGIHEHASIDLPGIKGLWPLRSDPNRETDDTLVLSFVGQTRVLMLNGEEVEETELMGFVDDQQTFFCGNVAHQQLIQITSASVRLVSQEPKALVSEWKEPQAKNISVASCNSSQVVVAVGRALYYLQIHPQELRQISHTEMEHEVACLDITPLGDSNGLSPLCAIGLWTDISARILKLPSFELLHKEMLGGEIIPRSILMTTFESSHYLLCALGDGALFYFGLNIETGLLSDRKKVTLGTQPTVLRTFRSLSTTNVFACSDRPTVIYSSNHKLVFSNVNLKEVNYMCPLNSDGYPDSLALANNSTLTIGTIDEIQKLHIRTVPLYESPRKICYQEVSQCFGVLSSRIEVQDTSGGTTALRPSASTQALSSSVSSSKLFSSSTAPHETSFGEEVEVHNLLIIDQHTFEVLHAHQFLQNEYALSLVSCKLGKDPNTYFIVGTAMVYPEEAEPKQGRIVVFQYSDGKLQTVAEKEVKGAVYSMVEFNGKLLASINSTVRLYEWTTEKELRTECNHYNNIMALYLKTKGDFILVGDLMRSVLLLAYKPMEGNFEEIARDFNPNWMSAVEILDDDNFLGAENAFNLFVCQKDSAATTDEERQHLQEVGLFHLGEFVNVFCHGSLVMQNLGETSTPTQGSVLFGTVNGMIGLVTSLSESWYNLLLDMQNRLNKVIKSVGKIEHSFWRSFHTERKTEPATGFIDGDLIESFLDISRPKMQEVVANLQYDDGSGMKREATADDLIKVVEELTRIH

IC50 (MCF7) [nM]	IC50 (H2228) [nM]	IC50 (H1975) [nM]	Structure (SMILES)	Degradation of substrate protein ALK (substrate protein remaining %) (ALK)	IC50 (SR) [nM]
500 to 1000	50 to 100	500 to 1000	COc1cc(N2CCC(N3CCN(Cc4cncc(N5CCC(=O)NC5=O)c4)CC3)CC2)ccc1Nc1ncc(Cl)c(Nc2ccccc2P(C)(C)=O)n1 [GT-07610, 1-(5-((4-(1-(4-((5-chloro-4-((2-(dimethylphosphoryl)phenyl)amino)pyrimidin-2-yl)amino)-3-methoxyphenyl)piperidin-4-yl)piperazin-1-yl)methyl)pyridin-3-yl)dihydropyrimidine-2,4(1H,3H)-dione]	A (A is defined as 0% ≤ substrate protein remaining % ≤ 80%)	1 to 10
500 to 1000	100 to 500	100 to 500	COc1cc(N2CCN(Cc3ccc(N4CCC(=O)NC4=O)c(F)c3)CC2)ccc1Nc1ncc(Cl)c(Nc2ccccc2P(C)(C)=O)n1 [GT-07346, 1-(4-((4-(4-((5-chloro-4-((2-(dimethylphosphoryl)phenyl)amino)pyrimidin-2-yl)amino)-3-methoxyphenyl)piperazin-1-yl)methyl)-2-fluorophenyl)dihydropyrimidine-2,4(1H,3H)-dione]	A (A is defined as 0% ≤ substrate protein remaining % ≤ 80%)	10 to 50
100 to 500	100 to 500	500 to 1000	COc1cc(N2CCC(N(C)Cc3ccc(C4CCC(=O)NC4=O)cn3)CC2)ccc1Nc1ncc(Cl)c(Nc2ccccc2P(C)(C)=O)n1 (stereo not drawn) [GT-07698, 3-(6-(((1-(4-((5-chloro-4-((2-(dimethylphosphoryl)phenyl)amino)pyrimidin-2-yl)amino)-3-methoxyphenyl)piperidin-4-yl)(methyl)amino)methyl)pyridin-3-yl)piperidine-2,6-dione]	A (A is defined as 0% ≤ substrate protein remaining % ≤ 80%)	10 to 50
500 to 1000	100 to 500	500 to 1000	COc1cc(N2CCN(Cc3ccc(N4CCC(=O)NC4=O)cc3)CC2)ccc1Nc1ncc(Cl)c(Nc2ccccc2P(C)(C)=O)n1 [GT-07345, 1-(4-((4-(4-((5-chloro-4-((2-(dimethylphosphoryl)phenyl)amino)pyrimidin-2-yl)amino)-3-methoxyphenyl)piperazin-1-yl)methyl)phenyl)dihydropyr imidine-2,4(1H,3H)-dione]	A (A is defined as 0% ≤ substrate protein remaining % ≤ 80%)	10 to 50
500 to 1000	100 to 500	500 to 1000	COc1cc(N2CCC(N(C)Cc3cc(C4CCC(=O)NC4=O)cnc3F)CC2)ccc1Nc1ncc(Cl)c(Nc2ccccc2P(C)(C)=O)n1 (stereo not drawn) [GT-07696, 3-(5-(((1-(4-((5-chloro-4-((2-(dimethylphosphoryl)phenyl)amino)pyrimidin-2-yl)amino)-3-methoxyphenyl)piperidin-4-yl)(methyl)amino)methyl)-6-fluoropyridin-3-yl)piperidine-2,6-dione]	A (A is defined as 0% ≤ substrate protein remaining % ≤ 80%)	10 to 50
500 to 1000	100 to 500	500 to 1000	COc1cc(N2CCN(Cc3cccc(NC4CCC(=O)NC4=O)c3)CC2)ccc1Nc1ncc(Cl)c(Nc2ccccc2P(C)(C)=O)n1 (stereo not drawn) [GT-07351, 3-((3-((4-(4-((5-chloro-4-((2-(dimethylphosphoryl)phenyl)amino)pyrimidin-2-yl)amino)-3-methoxyphenyl)piperazin-1-yl)methyl)phenyl)amino)pip eridine-2,6-dione]	A (A is defined as 0% ≤ substrate protein remaining % ≤ 80%)	10 to 50
